In patent publication US10870647B2, “Imidazopyridine derivative, method for preparing same, and pharmaceutical composition containing same as active ingredient for preventing or treating cancer” (DAEGU-GYEONGBUK MEDICAL INNOVATION FOUNDATION, priority 2016, dated 2020):

Legend:
Experiment in all cases: Kinase selectivity, scanMAX Kinase assay panel (DiscoverX), % control at 1 uM
Format in all cases: binding
[1] = molecular target: T1, scanMAX Kinase assay panel (Homo sapiens, UniProt P51957); conditions: NEK4; 1 uM; read-out: Percent Control (%)
T1 construct: purchased DiscoverX
Summary of the method: (§1)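 A single concentration of 1 uM, in DMSO, is applied across the kinase panel. Activity against an individual enzyme is assigned where % control is less than 35.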

[2] = molecular target: T2, scanMAX Kinase assay panel (Homo sapiens, UniProt P52564); conditions: MEK6; 1 uM; read-out: Percent Control (%)
T2 construct: purchased DiscoverX
T2 sequence (P52564 1-334): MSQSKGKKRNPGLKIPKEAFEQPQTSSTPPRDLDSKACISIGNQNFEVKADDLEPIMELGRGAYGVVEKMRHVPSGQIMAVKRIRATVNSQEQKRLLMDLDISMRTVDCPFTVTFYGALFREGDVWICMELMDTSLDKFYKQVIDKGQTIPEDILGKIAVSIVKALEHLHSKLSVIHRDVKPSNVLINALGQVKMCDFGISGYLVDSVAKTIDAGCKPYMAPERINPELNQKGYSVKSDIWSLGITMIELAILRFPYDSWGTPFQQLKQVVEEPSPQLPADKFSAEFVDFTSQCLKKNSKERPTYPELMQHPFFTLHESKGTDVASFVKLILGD
Summary of the method: as §1

[3] = molecular target: T3, scanMAX Kinase assay panel (Homo sapiens, UniProt P54756); conditions: EPHA5; 1 uM; read-out: Percent Control (%)
T3 construct: purchased DiscoverX
T3 sequence (P54756 25-1037): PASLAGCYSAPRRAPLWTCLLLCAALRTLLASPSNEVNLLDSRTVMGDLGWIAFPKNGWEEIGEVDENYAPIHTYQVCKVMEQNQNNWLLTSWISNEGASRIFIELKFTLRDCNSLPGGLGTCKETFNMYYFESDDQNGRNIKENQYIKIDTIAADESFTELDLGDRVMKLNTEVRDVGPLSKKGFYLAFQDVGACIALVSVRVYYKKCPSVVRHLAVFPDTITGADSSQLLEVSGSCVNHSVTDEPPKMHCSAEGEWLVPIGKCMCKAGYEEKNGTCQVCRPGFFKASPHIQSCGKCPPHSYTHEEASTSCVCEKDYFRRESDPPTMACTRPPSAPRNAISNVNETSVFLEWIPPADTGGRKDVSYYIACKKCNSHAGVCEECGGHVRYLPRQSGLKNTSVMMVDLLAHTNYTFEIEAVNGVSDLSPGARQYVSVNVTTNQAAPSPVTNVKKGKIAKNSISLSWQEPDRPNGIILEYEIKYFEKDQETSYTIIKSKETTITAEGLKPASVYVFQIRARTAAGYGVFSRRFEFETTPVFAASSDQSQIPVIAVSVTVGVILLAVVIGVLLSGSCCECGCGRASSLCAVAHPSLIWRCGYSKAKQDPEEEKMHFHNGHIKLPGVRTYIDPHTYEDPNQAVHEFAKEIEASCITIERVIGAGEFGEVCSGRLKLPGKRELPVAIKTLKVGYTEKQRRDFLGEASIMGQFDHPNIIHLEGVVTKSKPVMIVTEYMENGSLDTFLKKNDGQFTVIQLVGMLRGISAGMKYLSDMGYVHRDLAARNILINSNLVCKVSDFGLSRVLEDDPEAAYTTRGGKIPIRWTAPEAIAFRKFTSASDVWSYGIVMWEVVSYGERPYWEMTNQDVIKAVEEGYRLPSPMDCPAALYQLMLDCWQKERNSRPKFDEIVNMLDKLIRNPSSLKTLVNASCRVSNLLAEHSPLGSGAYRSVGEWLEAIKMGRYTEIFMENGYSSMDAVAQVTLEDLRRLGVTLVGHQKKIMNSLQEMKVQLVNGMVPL
Summary of the method: as §1

[4] = molecular target: T4, scanMAX Kinase assay panel (Homo sapiens, UniProt Q16584); conditions: MLK3; 1 uM; read-out: Percent Control (%)
T4 construct: purchased DiscoverX
Summary of the method: as §1

[5] = molecular target: T5, scanMAX Kinase assay panel (Homo sapiens, UniProt P07949); conditions: RET; 1 uM; read-out: Percent Control (%)
T5 construct: purchased DiscoverX
T5 sequence (P07949 29-1114): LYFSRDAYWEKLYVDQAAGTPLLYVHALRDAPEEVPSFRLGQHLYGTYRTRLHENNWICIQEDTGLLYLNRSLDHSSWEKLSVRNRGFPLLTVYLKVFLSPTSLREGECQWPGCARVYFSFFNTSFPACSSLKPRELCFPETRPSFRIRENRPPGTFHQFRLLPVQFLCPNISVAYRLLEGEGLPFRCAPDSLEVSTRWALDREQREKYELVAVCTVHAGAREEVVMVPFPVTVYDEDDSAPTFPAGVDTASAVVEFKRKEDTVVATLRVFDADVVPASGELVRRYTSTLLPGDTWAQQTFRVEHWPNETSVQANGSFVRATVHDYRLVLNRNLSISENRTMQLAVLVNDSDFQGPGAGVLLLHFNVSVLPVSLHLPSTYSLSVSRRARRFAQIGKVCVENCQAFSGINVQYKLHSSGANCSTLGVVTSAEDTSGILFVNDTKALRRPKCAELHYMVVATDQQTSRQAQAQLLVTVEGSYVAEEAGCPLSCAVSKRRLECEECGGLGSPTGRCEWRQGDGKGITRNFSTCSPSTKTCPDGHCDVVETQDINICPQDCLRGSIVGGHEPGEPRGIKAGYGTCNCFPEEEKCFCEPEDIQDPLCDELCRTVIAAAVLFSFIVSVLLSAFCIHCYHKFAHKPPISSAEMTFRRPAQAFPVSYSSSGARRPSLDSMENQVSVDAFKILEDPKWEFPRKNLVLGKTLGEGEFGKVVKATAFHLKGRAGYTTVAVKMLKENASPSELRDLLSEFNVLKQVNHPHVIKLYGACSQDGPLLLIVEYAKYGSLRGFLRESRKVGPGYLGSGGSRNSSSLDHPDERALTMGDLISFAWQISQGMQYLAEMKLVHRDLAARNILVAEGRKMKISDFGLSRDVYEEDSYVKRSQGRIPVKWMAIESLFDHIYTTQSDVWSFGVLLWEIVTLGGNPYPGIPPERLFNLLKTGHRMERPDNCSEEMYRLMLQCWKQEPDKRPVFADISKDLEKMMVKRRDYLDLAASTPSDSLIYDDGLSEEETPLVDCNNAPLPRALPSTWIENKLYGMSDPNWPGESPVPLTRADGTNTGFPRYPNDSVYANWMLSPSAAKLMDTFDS
Summary of the method: as §1

[6] = molecular target: T6, scanMAX Kinase assay panel (Homo sapiens, UniProt O00506); conditions: YSK1; 1 uM; read-out: Percent Control (%)
T6 construct: purchased DiscoverX
T6 sequence (O00506 whole entry): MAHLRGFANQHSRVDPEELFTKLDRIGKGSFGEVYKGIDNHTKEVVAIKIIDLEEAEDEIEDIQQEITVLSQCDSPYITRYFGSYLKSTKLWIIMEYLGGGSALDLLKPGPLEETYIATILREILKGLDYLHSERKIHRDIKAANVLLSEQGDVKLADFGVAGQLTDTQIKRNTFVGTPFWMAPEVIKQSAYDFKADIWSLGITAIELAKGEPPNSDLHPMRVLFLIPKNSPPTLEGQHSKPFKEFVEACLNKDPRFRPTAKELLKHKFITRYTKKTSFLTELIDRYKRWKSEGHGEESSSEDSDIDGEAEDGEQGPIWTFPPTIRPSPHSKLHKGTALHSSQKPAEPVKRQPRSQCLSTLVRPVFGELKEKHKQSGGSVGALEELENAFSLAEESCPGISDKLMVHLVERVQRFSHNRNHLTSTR
Summary of the method: as §1

[7] = molecular target: T7, scanMAX Kinase assay panel (Homo sapiens, UniProt O43293); conditions: DAPK3; 1 uM; read-out: Percent Control (%)
T7 construct: purchased DiscoverX
T7 sequence (O43293 whole entry): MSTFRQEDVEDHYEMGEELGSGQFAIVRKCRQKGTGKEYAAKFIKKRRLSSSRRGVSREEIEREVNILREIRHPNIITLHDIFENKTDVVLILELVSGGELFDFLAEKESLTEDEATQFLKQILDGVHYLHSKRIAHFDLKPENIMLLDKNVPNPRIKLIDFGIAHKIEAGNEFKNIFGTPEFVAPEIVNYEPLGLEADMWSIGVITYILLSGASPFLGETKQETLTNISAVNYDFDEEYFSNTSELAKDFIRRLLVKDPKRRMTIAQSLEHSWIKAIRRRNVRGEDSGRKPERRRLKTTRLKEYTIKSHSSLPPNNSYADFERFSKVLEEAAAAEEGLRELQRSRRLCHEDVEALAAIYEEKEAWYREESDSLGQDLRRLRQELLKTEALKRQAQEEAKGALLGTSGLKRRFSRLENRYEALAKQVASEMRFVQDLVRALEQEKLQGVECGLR
Summary of the method: as §1

[8] = molecular target: T8, scanMAX Kinase assay panel (Homo sapiens, UniProt Q9H2K8); conditions: TAOK3; 1 uM; read-out: Percent Control (%)
T8 construct: purchased DiscoverX
T8 sequence (Q9H2K8 1-898): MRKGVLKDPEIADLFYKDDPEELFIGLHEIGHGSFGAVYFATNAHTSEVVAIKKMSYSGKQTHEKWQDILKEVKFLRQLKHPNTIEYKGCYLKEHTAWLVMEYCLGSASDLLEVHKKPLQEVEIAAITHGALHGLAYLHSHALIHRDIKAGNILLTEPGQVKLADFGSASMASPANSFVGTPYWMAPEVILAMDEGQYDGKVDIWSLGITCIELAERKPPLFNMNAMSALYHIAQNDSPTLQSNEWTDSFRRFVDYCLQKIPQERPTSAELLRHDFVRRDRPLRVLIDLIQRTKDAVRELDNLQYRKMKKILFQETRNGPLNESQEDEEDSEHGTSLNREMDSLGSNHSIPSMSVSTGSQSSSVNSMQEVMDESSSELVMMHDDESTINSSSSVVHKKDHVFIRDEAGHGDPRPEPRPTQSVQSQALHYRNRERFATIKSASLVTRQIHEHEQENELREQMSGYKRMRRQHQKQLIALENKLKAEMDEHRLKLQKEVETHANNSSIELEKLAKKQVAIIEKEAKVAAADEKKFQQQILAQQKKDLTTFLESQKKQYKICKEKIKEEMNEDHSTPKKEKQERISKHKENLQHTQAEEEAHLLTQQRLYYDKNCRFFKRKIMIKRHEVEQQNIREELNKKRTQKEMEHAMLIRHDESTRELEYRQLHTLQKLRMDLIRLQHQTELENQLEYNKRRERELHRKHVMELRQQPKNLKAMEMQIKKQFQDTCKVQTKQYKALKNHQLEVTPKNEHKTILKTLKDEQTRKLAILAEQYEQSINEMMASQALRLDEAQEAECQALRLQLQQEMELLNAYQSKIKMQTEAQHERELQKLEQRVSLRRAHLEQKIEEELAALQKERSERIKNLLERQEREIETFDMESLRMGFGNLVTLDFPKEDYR
Summary of the method: as §1

[9] = molecular target: T9, scanMAX Kinase assay panel (Homo sapiens, UniProt Q9UM73, L1196M); conditions: ALK (L1196M); 1 uM; read-out: Percent Control (%)
T9 construct: purchased DiscoverX
T9 sequence (Q9UM73 19-1620 L1196M): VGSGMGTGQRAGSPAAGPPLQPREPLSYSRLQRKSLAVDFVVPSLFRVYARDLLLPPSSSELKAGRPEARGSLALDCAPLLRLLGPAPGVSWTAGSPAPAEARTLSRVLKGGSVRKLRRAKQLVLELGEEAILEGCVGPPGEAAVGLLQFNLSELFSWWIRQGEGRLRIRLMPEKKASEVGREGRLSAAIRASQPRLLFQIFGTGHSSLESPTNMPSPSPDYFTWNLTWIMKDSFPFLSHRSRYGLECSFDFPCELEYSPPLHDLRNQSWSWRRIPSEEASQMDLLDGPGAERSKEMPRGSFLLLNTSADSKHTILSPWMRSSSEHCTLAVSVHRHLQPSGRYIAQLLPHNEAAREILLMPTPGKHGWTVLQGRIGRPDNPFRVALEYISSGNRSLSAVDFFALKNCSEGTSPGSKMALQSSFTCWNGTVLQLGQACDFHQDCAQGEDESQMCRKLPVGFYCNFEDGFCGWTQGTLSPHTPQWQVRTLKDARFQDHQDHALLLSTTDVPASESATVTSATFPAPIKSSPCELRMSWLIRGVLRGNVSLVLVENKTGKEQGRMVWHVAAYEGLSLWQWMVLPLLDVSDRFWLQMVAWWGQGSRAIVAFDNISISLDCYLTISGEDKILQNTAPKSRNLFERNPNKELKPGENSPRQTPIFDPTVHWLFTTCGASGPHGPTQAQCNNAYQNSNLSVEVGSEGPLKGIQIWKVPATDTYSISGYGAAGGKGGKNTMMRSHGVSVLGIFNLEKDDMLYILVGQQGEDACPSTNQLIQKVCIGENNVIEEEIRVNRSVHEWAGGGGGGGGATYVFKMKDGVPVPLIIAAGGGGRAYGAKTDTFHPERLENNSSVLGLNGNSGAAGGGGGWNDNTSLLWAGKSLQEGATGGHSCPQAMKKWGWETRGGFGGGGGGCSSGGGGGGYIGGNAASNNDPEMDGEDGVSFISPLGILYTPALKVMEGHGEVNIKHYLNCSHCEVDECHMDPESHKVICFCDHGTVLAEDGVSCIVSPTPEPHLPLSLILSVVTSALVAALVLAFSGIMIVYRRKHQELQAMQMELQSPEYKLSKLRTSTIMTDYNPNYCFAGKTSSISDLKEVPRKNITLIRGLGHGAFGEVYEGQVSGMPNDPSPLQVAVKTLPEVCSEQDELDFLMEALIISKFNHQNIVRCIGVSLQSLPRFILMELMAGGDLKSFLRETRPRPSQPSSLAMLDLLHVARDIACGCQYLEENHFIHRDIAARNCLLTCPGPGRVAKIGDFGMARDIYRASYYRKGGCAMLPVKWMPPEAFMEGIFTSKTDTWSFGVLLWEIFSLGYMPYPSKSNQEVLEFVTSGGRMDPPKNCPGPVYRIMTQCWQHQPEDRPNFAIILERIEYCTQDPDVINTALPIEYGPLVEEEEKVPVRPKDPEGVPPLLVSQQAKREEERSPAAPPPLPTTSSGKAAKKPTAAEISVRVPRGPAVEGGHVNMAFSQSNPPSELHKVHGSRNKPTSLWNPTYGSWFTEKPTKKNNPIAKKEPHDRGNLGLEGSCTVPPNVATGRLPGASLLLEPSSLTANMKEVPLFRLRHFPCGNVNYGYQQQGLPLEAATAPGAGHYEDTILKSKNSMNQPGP
Summary of the method: as §1

[10] = molecular target: T10, scanMAX Kinase assay panel (Homo sapiens, UniProt Q9BYT3); conditions: STK33; 1 uM; read-out: Percent Control (%)
T10 construct: purchased DiscoverX
T10 sequence (Q9BYT3 whole entry): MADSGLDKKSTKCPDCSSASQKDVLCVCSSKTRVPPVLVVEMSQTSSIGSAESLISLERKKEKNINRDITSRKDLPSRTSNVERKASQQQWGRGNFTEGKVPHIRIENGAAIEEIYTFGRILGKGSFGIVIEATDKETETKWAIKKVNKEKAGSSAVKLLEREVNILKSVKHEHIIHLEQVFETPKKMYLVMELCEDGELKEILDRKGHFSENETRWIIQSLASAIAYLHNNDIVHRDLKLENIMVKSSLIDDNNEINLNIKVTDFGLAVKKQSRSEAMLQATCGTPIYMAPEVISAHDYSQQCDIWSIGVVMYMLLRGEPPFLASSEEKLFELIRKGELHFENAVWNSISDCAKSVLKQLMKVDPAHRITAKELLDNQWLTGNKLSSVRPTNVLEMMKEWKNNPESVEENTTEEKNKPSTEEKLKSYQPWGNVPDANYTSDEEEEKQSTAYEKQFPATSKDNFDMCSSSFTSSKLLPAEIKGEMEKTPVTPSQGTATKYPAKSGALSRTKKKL
Summary of the method: as §1

SMILES | remaining binding at 1 µM [1] [%] | remaining binding at 1 µM [2] [%] | remaining binding at 1 µM [3] [%] | remaining binding at 1 µM [4] [%] | remaining binding at 1 µM [5] [%] | remaining binding at 1 µM [6] [%] | remaining binding at 1 µM [7] [%] | remaining binding at 1 µM [8] [%] | remaining binding at 1 µM [9] [%] | remaining binding at 1 µM [10] [%]
Cc1ccc(NC(=O)C2(C(=O)Nc3ccc(F)cc3)CC2)cc1C#Cc1cnc2c(Nc3cnn(C(C)C)c3)cccn12 [Example 78] | 100 | 100 | 100 | 94 | 97 | 100 | 100 | 99 | 100 | 100
Cc1cn(-c2cc(NC(=O)c3ccc(C)c(C#Cc4cnc5c(Nc6cnn(C)c6)cccn45)c3)cc(C(F)(F)F)c2)cn1 [Example 12, 4-methyl-N-(3-(4-methyl-1H-imidazol-1-yl)-5-(trifluoromethyl)phenyl)-3-((8-((1-methyl-1H-pyrazol-4-yl)amino)imidazo[1,2-a]pyridin-3-yl)ethynyl)benzamide] | 61 | 89 | 31 | 14 | 1 | 86 | 100 | 61 | 100 | 40
Cc1ccc(C(=O)Nc2ccc(CN3CCN(C)CC3)c(C(F)(F)F)c2)cc1C#Cc1cnc2c(Nc3cnn(C)c3)cccn12 [Example 1, 4-methyl-3-((8-((1-methyl-1H-pyrazol-4-yl)amino)imidazo[1,2-a]pyridin-3-yl)ethynyl)-N-(4-((4-methylpiperazin-1-yl)methyl)-3-(trifluoromethyl)phenyl)benzamide] | 9 | 86 | 1 | 1 | 0 | 90 | 68 | 1 | 29 | 5
